The target of the first assay is truncated form of human NaV 1.8 with full channel activity (Homo sapiens, UniProt Q9Y5Y9). Briefly: E-VIPR Assay Method A for detecting and measuring Nav inhibition (HEK cells, membrane potential FRET dyes, electrical stimulation). The class given is cell-based. As to conditions: HEK cells expressing human NaV 1.8, HS (human serum) in compound loading buffer, 11 point dose response, top dose 3 μM, Table 20, read-out: Nav 1.8 MedChem Optical Assay EVIPR Assay Method A HS IC50. The source says:
E-VIPR Assay Method A for Detecting and Measuring Nav Inhibition Properties Sodium ion channels are voltage-dependent proteins that can be activated by inducing membrane voltage changes by applying electric fields. The electrical stimulation instrument and methods of use, referred to as E-VIPR, are described in International Publication No. WO 2002/008748 A3 and C.-J. Huang et al. Characterization of voltage-gated sodium channel blockers by electrical stimulation and fluorescence detection of membrane potential, 24 Nature Biotech. 439-46 (2006), both of which are incorporated by reference in their entirety. The instrument comprises a microtiter plate handler, an optical system for exciting the coumarin dye while simultaneously recording the coumarin and oxonol emissions, a waveform generator, a current- or voltage-controlled amplifier, and parallel electrode pairs that are inserted into assay plate wells. Under integrated computer control, this instrument passes user-programmed electrical stimulus protocols to cells within the wells of the microtiter plate. […] Sigma #F4135), 1% NEAA (Non-Essential Amino Acids, Life Tech #11140), 1% HEPES (Life Tech #15630), 1% Pen-Strep (Penicillin-Streptomycin; […] Cells were expanded in vented cap flasks, with 95% humidity and 5% CO2. Reagents and Stock Solutions: • 100 mg/mL Pluronic F-127 (Sigma #P2443), in dry DMSO • Compound Plates: […] 5% KIR 2.1 Bacmam virus (produced in-house), prepared as described in Section 3.3 of J. A. […] The solution was made by adding 10% Pluronic F127 stock equal to combined volumes of CC2-DMPE and DiSBAC6(3). The order of preparation was first mix Pluronic and CC2-DMPE, then add DiSBAC6(3), then while vortexing add Bath1/β-Cyclodextrin. […] Assay Protocol: […] Final DMSO concentration for all wells in the assay was 0.625% (0.75% DMSO was supplemented to the Compound Loading Buffer for a final DMSO concentration of 0.625%). […] 3) Cell plates were prepared. On the day of the assay, the media was aspirated, and the cells were washed three times with 80 μL of Bath-1 buffer, maintaining 25 μL residual volume in each well. 4) 25 μL per well of Hexyl Dye Solution was dispensed into the cell plates. The cells were incubated for 20 minutes at room temp or ambient conditions in darkness. 5) 80 μL per well of Compound Loading Buffer was dispensed into compound plates. 6) The cell plates were washed three times with 80 μL per well of Bath-1 Buffer, leaving 25 µL of residual volume. Then 25 uL per well from compound plate was transferred to each cell plate. The mixture was incubated for 30 minutes at room temp/ambient conditions. 7) The plate was read on E-VIPR using the current-controlled amplifier to deliver stimulation wave pulses using the following protocol: 1.25 Amps, 2.5 ms pulse width biphasic waveform, 10 Hz for 10 seconds at a scan rate of 200 Hz. A pre-stimulus recording was performed for 0.5 seconds to obtain the un-stimulated intensities baseline. The stimulatory waveform was followed by 0.5 seconds of post-stimulation recording to examine the relaxation to the resting state. Data Analysis: Data were analyzed and reported as normalized ratios of emission intensities measured in the 460 nm and 580 nm channels. The response as a function of time was reported as the ratios obtained using the following formula: […] The data were further reduced by calculating the initial (Ri) and final (Rf) ratios. These were the average ratio values during part or all of the pre-stimulation period and during sample points during the stimulation period. The fluorescence ratio (Rf/Ri) was then calculated and reported as a function of time. Control responses were obtained by performing assays in the presence of the positive control, and in the absence of pharmacological agents (DMSO vehicle negative control). Responses to the negative (N) and positive (P) controls were calculated as above. The compound antagonist % activity A was then defined as: [formula] where X is the ratio response of the test compound. […]
truncated form of human NaV 1.8 with full channel activity, sequence (Q9Y5Y9 126-1722 limits assumed): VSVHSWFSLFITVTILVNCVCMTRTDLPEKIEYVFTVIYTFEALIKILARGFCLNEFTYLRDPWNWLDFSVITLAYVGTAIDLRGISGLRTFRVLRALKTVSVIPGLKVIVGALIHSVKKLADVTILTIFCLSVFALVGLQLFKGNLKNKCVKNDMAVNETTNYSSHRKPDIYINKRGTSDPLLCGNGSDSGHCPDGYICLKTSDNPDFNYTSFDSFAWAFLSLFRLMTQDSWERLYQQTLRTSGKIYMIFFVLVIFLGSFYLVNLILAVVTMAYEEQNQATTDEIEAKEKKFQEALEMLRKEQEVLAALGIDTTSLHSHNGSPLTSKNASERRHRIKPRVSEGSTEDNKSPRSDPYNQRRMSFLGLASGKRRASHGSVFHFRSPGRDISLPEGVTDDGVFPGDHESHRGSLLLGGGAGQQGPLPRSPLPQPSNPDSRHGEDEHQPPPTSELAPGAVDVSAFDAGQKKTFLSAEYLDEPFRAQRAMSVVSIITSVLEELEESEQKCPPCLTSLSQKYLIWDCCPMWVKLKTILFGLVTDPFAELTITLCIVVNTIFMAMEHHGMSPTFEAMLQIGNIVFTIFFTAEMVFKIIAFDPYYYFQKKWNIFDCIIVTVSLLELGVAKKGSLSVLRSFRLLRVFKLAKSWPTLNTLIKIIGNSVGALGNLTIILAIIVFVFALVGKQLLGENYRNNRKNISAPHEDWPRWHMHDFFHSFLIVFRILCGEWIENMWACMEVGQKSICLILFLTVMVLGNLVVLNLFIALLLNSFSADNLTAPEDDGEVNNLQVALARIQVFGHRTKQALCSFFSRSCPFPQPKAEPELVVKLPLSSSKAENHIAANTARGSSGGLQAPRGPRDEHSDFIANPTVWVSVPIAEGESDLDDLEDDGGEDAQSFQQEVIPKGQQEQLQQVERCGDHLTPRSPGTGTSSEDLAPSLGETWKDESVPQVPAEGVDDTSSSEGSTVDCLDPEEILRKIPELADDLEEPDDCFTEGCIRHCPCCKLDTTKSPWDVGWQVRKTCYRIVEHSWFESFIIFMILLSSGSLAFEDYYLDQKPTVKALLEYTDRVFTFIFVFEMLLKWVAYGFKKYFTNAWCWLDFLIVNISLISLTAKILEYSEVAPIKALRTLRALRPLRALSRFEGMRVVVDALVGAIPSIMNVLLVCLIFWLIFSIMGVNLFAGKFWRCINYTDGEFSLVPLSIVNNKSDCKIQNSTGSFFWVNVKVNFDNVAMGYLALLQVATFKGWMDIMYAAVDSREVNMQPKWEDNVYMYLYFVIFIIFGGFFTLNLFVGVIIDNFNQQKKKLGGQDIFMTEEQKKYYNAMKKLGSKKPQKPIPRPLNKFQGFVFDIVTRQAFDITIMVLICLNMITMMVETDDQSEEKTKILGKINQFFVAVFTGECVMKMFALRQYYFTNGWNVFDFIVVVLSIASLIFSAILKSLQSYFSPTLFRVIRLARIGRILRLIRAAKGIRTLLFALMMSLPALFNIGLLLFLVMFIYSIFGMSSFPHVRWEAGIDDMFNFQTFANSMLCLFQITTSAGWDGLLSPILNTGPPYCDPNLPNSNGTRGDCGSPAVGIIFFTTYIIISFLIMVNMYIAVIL
Turning to `[2H]C([2H])([2H])Oc1cc(OC(F)(F)F)ccc1Oc1ccc(OC(F)(F)F)c(F)c1C(=O)Nc1ccc(F)c(C(N)=O)c1` [Compound 3, N-(3-carbamoyl-4-fluoro-phenyl)-2-fluoro-6-[2-(trideuteriomethoxy)-4-(trifluoromethoxy)phenoxy]-3-(trifluoromethoxy)benzamide], the IC50 was determined as 0.001 µM.

For `NC(=O)c1cc(NC(=O)c2c(Oc3ccc(OC(F)(F)F)cc3)ccc(C(F)(F)F)c2F)ccc1F` [Compound 15, N-(3-carbamoyl-4-fluoro-phenyl)-2-fluoro-6-[4-(trifluoromethoxy)phenoxy]-3-(trifluoromethyl)benzamide], the half-maximal inhibitory concentration (IC50) was found to be 0.007 µM.

The same assay, now with this note: HEK cells expressing human NaV 1.8, HS (human serum) in compound loading buffer, 11 point dose response, top dose 3 μM, Table 20A, read-out: Nav 1.8 MedChem Optical Assay EVIPR Assay Method A HS IC50.
Take `COc1cc(OC(F)(F)F)ccc1Oc1cc(C(C)(C)F)ncc1C(=O)Nc1ccc(F)c(C(N)=O)c1` [Compound 103, N-(3-Carbamoyl-4-fluoro-phenyl)-6-(1-fluoro-1-methyl-ethyl)-4-[2-methoxy-4-(trifluoromethoxy)phenoxy]pyridine-3-carboxamide]: the IC50 is 0.034 µM.

As for `[2H]C([2H])([2H])Oc1cc(OC(F)(F)F)ccc1Oc1cc(C2CC2)ncc1C(=O)Nc1ccc(F)c(C(N)=O)c1` [Compound 88, N-(3-Carbamoyl-4-fluoro-phenyl)-6-cyclopropyl-4-[2-(trideuteriomethoxy)-4-(trifluoromethoxy)phenoxy]pyridine-3-carboxamide], the IC50 was 0.049 µM.

For the compound `NC(=O)c1cc(NC(=O)c2cc(F)c(C(F)(F)F)cc2Oc2ccc(OC(F)(F)F)cc2)ccc1F` [Compound 77, N-(3-Carbamoyl-4-fluoro-phenyl)-5-fluoro-2-[4-(trifluoromethoxy)phenoxy]-4-(trifluoromethyl)benzamide], the IC50 was determined as 0.15 µM.

`CCOc1c(C(F)(F)F)ncc(Oc2ccc(OC(F)(F)F)cc2OC)c1C(=O)Nc1cc(C(N)=O)ncc1C` [Compound 210, N-(2-Carbamoyl-5-methyl-4-pyridyl)-3-ethoxy-5-[2-methoxy-4-(trifluoromethoxy)phenoxy]-2-(trifluoromethyl)pyridine-4-carboxamide]: the IC50 is 0.14 µM.

Turning to `[2H]C([2H])([2H])Oc1cc(OC(F)(F)F)ccc1Oc1cc(OC(F)(F)F)ccc1C(=O)Nc1ccnc(C(N)=O)c1` [Compound 147, 4-[[2-[2-(Trideuteriomethoxy)-4-(trifluoromethoxy)phenoxy]-4-(trifluoromethoxy)benzoyl]amino]pyridine-2-carboxamide], the IC50 came out at 0.13 µM.

As for `NC(=O)c1cc(NC(=O)c2c(Oc3ccc(OC(F)(F)F)c(Cl)c3)ccc(C(F)(F)F)c2F)ccn1` [Compound 53], the IC50 turned out to be 0.017 µM.

For the compound `COc1cc(OC(F)(F)F)ccc1Oc1cc(C2CC2)c(C(F)(F)F)cc1C(=O)Nc1ccnc(C(N)=O)c1` [Compound 125, 4-[[4-Cyclopropyl-2-[2-methoxy-4-(trifluoromethoxy)phenoxy]-5-(trifluoromethyl)benzoyl]amino]pyridine-2-carboxamide], the IC50 amounted to 0.034 µM.

Turning to `COc1cc(OC(F)(F)F)ccc1Oc1cc(C(C)(C)C)ncc1C(=O)Nc1ccc(F)c(C(N)=O)c1` [Compound 94, 6-tert-Butyl-N-(3-carbamoyl-4-fluoro-phenyl)-4-[2-methoxy-4-(trifluoromethoxy)phenoxy]pyridine-3-carboxamide], the IC50 was 0.018 µM.

Turning to `NC(=O)c1cc(NC(=O)c2c(Oc3ccc(OC(F)(F)F)cc3)cc(C(F)(F)F)cc2C(F)(F)F)ccn1` [Compound 160, 4-[[2-[4-(Trifluoromethoxy)phenoxy]-4,6-bis(trifluoromethyl)benzoyl]amino]pyridine-2-carboxamide], the IC50 amounted to 0.41 µM.

`COc1cc(OC(F)(F)F)ccc1Oc1cc(Cl)cc(F)c1C(=O)Nc1cc(C(N)=O)ncc1C` [Compound 130, 4-[[4-Chloro-2-fluoro-6-[2-methoxy-4-(trifluoromethoxy)phenoxy]benzoyl]amino]-5-methyl-pyridine-2-carboxamide]: the IC50 came to 0.027 µM.

`NC(=O)c1cc(NC(=O)c2c(Oc3ccc(OC(F)(F)F)cc3)cnc(C(F)(F)F)c2F)ccn1` [Compound 61, N-(2-Carbamoyl-4-pyridyl)-3-fluoro-5-[4-(trifluoromethoxy)phenoxy]-2-(trifluoromethyl)pyridine-4-carboxamide]: the 50% inhibitory concentration (IC50) is 0.038 µM.

Take `[2H]C([2H])([2H])Oc1cc(OC(F)(F)F)ccc1Oc1ccc(C(F)(F)F)c(F)c1C(=O)Nc1ccc(C(N)=O)cc1` [Compound 127, N-(4-carbamoylphenyl)-2-fluoro-6-[2-(trideuteriomethoxy)-4-(trifluoromethoxy)phenoxy]-3-(trifluoromethyl)benzamide]: the IC50 amounted to 0.004 µM.

Regarding `NC(=O)c1cc(NC(=O)c2c(Oc3ccc(OC(F)(F)F)cc3)cccc2C(F)(F)F)ccc1F` [Compound 39, N-(3-Carbamoyl-4-fluoro-phenyl)-2-[4-(trifluoromethoxy)phenoxy]-6-(trifluoromethyl)benzamide], the IC50 came out at 0.21 µM.

In the case of `COc1cc(OC(F)(F)F)ccc1Oc1cc(C(F)(F)F)ncc1C(=O)Nc1cc(C)nc(C(N)=O)c1` [Compound 84, 4-[[4-[2-Methoxy-4-(trifluoromethoxy)phenoxy]-6-(trifluoromethyl)pyridine-3-carbonyl]amino]-6-methyl-pyridine-2-carboxamide], the IC50 is 0.58 µM.

Consider `COc1cc(OC(F)(F)F)ccc1Oc1cc(C2CC2)ncc1C(=O)Nc1ccc(F)c(C(N)=O)c1` [Compound 43, N-(3-Carbamoyl-4-fluoro-phenyl)-6-cyclopropyl-4-[2-methoxy-4-(trifluoromethoxy)phenoxy]pyridine-3-carboxamide], for which the IC50 was found to be 0.04 µM.

`COc1cc(OC(F)(F)F)ccc1Oc1cc2c(cc1C(=O)Nc1ccc(F)c(C(N)=O)c1)OC(F)(F)O2` [Compound 122, N-(3-Carbamoyl-4-fluoro-phenyl)-2,2-difluoro-6-[2-methoxy-4-(trifluoromethoxy)phenoxy]-1,3-benzodioxole-5-carboxamide]: the IC50 was 0.056 µM.

For `COc1cc(Oc2ccc(OC(F)(F)F)cc2)c(C(=O)Nc2ccc(F)c(C(N)=O)c2)c(F)c1C(F)(F)F` [Compound 216, N-(3-Carbamoyl-4-fluoro-phenyl)-2-fluoro-4-methoxy-6-[4-(trifluoromethoxy)phenoxy]-3-(trifluoromethyl)benzamide], the half-maximal inhibitory concentration (IC50) came to 0.008 µM.

Regarding `[2H]C([2H])([2H])Oc1cc(OC(F)(F)F)ccc1Oc1ccc(C(F)(F)F)c(F)c1C(=O)Nc1ccc(C(N)=O)cn1` [Compound 212, 6-[[2-Fluoro-6-[2-(trideuteriomethoxy)-4-(trifluoromethoxy)phenoxy]-3-(trifluoromethyl)benzoyl]amino]pyridine-3-carboxamide], the IC50 is 0.054 µM.

For the compound `COc1cc(OC(F)(F)F)ccc1Oc1ccc(F)c(Cl)c1C(=O)Nc1ccnc(C(N)=O)c1` [Compound 171, 4-[[2-Chloro-3-fluoro-6-[2-methoxy-4-(trifluoromethoxy)phenoxy]benzoyl]amino]pyridine-2-carboxamide], the IC50 turned out to be 0.035 µM.

As for `[2H]C([2H])([2H])Oc1c(Oc2ccc(C(F)(F)F)c(F)c2C(=O)Nc2ccc(C(N)=O)nc2)ccc(OC(F)(F)F)c1F` [Compound 221, 5-[[2-Fluoro-6-[3-fluoro-2-(trideuteriomethoxy)-4-(trifluoromethoxy)phenoxy]-3-(trifluoromethyl)benzoyl]amino]pyridine-2-carboxamide], the IC50 turned out to be 0.014 µM.

Source of the values: patent US12281057B2 (VERTEX PHARMACEUTICALS INCORPORATED, priority 2017, dated 2025).
